{
  "source": "PubChem BioAssay AID179",
  "about": "(DTP/NCI, 2004)",
  "tested_on": "CEM cells HIV-1 protection, formazan growth assay",
  "test": "NCI AIDS Antiviral Assay",
  "conditions": "for IC50: measured here: growth of uninfected CEM cells",
  "method_in_brief": "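Human CEM cells, uninfected and HIV-1-infected, received five drug concentrations, and growth was read by soluble formazan assay. Compounds giving at least 50% protection were retested; reproducible 100% protection defined confirmed active.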",
  "note": "Calls of active or inactive are those of the source.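 Rule for the calls: active = compounds giving half or more protection of infected cells from virus-caused growth loss, again on retest; inactive = the rest.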",
  "data": [
    {"smiles": "Cc1cc(S(=O)(=O)NC2=NCc3c(F)cccc3N2)c(S)cc1Cl", "values": [
      {"measurement": "EC50", "value": "> 97.7", "unit": "µM"},
      {"measurement": "IC50", "value": 72.4, "unit": "µM"}
    ]},
    {"smiles": "C=C1C2Oc3ccccc3C1N(c1ccccc1)O2", "note": "(configuration not stated)", "values": [
      {"measurement": "outcome", "value": "inactive"}
    ]},
    {"smiles": "O=C(Nc1c[nH]c(=O)[nH]c1=O)c1ccc(S(=O)(=O)F)cc1", "values": [
      {"measurement": "EC50", "value": "> 151", "unit": "µM"},
      {"measurement": "IC50", "value": 85.1, "unit": "µM"}
    ]},
    {"smiles": "Cc1cc2nc3c4ccccc4n(C)c3nc2cc1C", "values": [
      {"measurement": "EC50", "value": "> 7.59", "unit": "µM"},
      {"measurement": "IC50", "value": 5.25, "unit": "µM"}
    ]},
    {"smiles": "C/C(=N\\NS(=O)(=O)c1ccccc1)c1ccc(Cl)c(Cl)c1", "values": [
      {"measurement": "outcome", "value": "inactive"}
    ]},
    {"smiles": "CCOC(=O)C(=CNC(Cc1c[nH]c2ccccc12)C(=O)OC)C(=O)OCC", "note": "(configuration not stated)", "values": [
      {"measurement": "outcome", "value": "inactive"}
    ]},
    {"smiles": "CC(C)NCCCC(C)Nc1ccnc2ccc3nn(C)nc3c12", "note": "(configuration not stated)", "values": [
      {"measurement": "EC50", "value": "> 240", "unit": "µM"},
      {"measurement": "IC50", "value": 53.7, "unit": "µM"}
    ]},
    {"smiles": "CC(C)c1c(O[Si](C(C)C)(C(C)C)C(C)C)c2c3c(ccc4c3c1OC4(C)C)C(C)CC2", "note": "(configuration not stated)", "values": [
      {"measurement": "EC50", "value": "> 200", "unit": "µM"},
      {"measurement": "IC50", "value": "> 200", "unit": "µM"}
    ]},
    {"smiles": "Cc1c(C(=N)N)oc2ccccc12", "values": [
      {"measurement": "outcome", "value": "inactive"}
    ]},
    {"smiles": "CC(C)NC(=O)CCN(C(=O)O)S(=O)(=O)c1ccc(NC(=O)c2ccccc2)cc1", "values": [
      {"measurement": "EC50", "value": "> 575", "unit": "µM"},
      {"measurement": "IC50", "value": "> 575", "unit": "µM"}
    ]},
    {"smiles": "Cc1cc(N(CCC#N)CCC#N)ccc1/C=C1\\SC(=S)NC1=O", "values": [
      {"measurement": "EC50", "value": "> 200", "unit": "µM"},
      {"measurement": "IC50", "value": 32.4, "unit": "µM"}
    ]},
    {"smiles": "N#Cc1c(N)n(-c2nc3ccccc3s2)c(=O)c2cc([N+](=O)[O-])ccc12", "values": [
      {"measurement": "EC50", "value": "> 100", "unit": "µM"},
      {"measurement": "IC50", "value": 12, "unit": "µM"}
    ]},
    {"smiles": "CC(=O)Nc1ccc(-c2nnc(SCC(=O)Nc3ccc(Cl)cc3Cl)o2)cc1", "values": [
      {"measurement": "EC50", "value": "> 42.7", "unit": "µM"},
      {"measurement": "IC50", "value": 25.1, "unit": "µM"}
    ]}
  ]
}
